This is an account of results in patent US20220257583A1, “Compositions and Methods for the Treatment of Intracranial Diseases” (Duke University, priority 2019, published 2022).

The inhibition is the percentage by which the read-out fell short of the control.

The target of experiment [1] is T1, β-arrestin 2 recruitment to activated β2V2R (Homo sapiens, UniProt P32121).
T1 construct: host or cells: U2OS
Put plainly: DiscoveRx β-arrestin 2 recruitment assay (β2V2R, isoproterenol stimulation). It is filed as cell-based. As to conditions: 25 minutes pretreatment. As to the method:
FIG. 13: The first 40 initial hits from the screening of a structurally diverse, drug-like compound (DDLC) library containing more than 3,500 unique molecules with binding activity against purified β-arrestin 2 were evaluated for β-arrestin 2 recruitment by DiscoveRx assay. DiscoveRx cells expressing chimeric β2-adrenergic receptor (β2AR) with C-terminal tail from vasopressin receptor 2 (β2V2R) that is known to bind β-arrestin 2 very tightly were employed in this assay. The DiscoveRx cells were pretreated with candidate compounds at 50 μM or DMSO (control) for 25 minutes followed by stimulation with isoproterenol (10 nM). Compound B29 inhibits more than 75% of β-arrestin 2 activity (red-dashed rectangle) induced by isoproterenol which is a receptor agonist (red bar graph).
FIG. 14: β-arrestin 2 recruitment to activated β2V2R. Testing B29 further, the DiscoveRx cells were pretreated with compound B29 at 1, 10, 50 μM or DMSO (control) for 25 minutes followed by stimulation with isoproterenol at various concentrations.
FIG. 20 is a graphic representation showing the effect of putative βarr2 binding compounds (21 hits) on βarr2 recruitment to agonist activated GPCR. DiscoveRx-U2OS cells exogenously expressing βarr2 and β2V2R were treated with each putative βarrestin binding compound at 50 μM for 30 min and then stimulated with agonist isoproterenol (10 nM) to induce recruitment of βarr. […]
A general note: Activated receptors often draw arrestin, which recruitment assays turn into a signal.

For another experiment, the system named is S1P1 on T cells. Kind of experiment: S1P1 expression on T cells exposed to compound. In kind it is cell-based.
Experiment [2] relates to T-cells in IC CT2A-bearing mice. Kind of experiment: Bone marrow and blood T-cell counts in IC CT2A-bearing mice. It is filed as in vivo. As to conditions: intraperitoneally every 3 days (Days 3-18), counts 18 days after implantation. The text has this:
FIGS. 6F-6J: FIG. 6F: Representative flow cytometry plot depicting the frequency of S1P1 on the surface of T-cells in the bone marrow of C57BL/6 mice and S1P1 KI bearing IC CT2A tumor. FIG. 6G: S1P1 KI mice were implanted with IC CT2A tumors and treated with anti (α)-PD-1, 4-1BB agonist, or the combination of both (n=8 per group). FIG. 6H and FIG. 6I: Bone marrow (FIG. 6H) and blood (FIG. 6I) T-cell counts in n=8 control mice and n=8 IC CT2A-bearing mice administered control treatment or G-CSF intraperitoneally every 3 days following tumor implantation (Days 3-18). Counts were assessed 18 days following tumor implantation. FIG. 6J: IC CT2A IC mice were administered G-CSF, 4-1BB agonist, or the combination regimen of both drugs (n=8 per group). […] Data in FIG. 6H and FIG. 6I are shown as mean±s.e.m. P values and were determined by two-tailed, unpaired Student's t-test. Survivals in FIG. 6G and FIG. 6J were assessed by two-tailed generalized Wilcoxon test. P values for overall comparison are depicted. […]
Spleen, thymus, cervical lymph nodes, and long bones of the legs (femur and tibia) were collected at defined and/or humane endpoints, in accordance with protocol. […] Briefly, tissues were processed in RPMI, minced into single cell suspensions, cell-strained, counted, stained with antibodies, and analyzed via flow cytometry. […]

A further experiment deals with intracranial CT2A glioma. Kind of experiment: Survival of mice bearing intracranial CT2A glioma. As to conditions: IC CT2A mice, monotherapy. In kind it is in vivo. On the procedure:
FIGS. 6A-6E: Hindering S1P1 internalization abrogates T-cell sequestration in bone marrow. FIG. 6A: Relative sequestration of adoptively transferred CFSE-labeled T-cells within the bone marrow of CT2A IC recipient mice at 2 h (left) or 24 h (right) after transfer. As indicated, transferred cells were splenocytes either from control C57BL/6 donors (control) or from S1P1 stabilized knock-in (S1P1 KI) donors (n=5 recipient mice per group). […] FIG. 6B: T-cell counts in the bone marrow of n=10 intracranial CT2A-bearing wild-type C57BL/6 or n=11 S1P1 KI mice. Counts were assessed at 18 d following tumor implantation and are shown relative to baseline counts inn=6 tumor-naïve control wild-type or n=6 tumor-naïve S1P1 KI mice. Cumulative data from three experiments are depicted in FIG. 6B and FIG. 6C, Intracranial CT2A tumors were harvested from n=6 wild-type C57BL/6 (WT) or n=6 S1P1 KI mice at 18 d following tumor implantation. TILs were assessed by flow cytometry and the number of total T-cells per gram of tumor quantified. FIG. 6D: The frequency of activated effector) (CD44^hiCD62L^lo) T-cells in intracranial CT2A tumors from the same n=6 wild-type C57BL/6 (WT) or n=6 S1P1 KI mice in FIG. 6C was also quantified. […] P values in and were determined by two-tailed, unpaired Student's t-test. Survival in FIG. 6E was assessed by two-tailed, generalized Wilcoxon test. […]

T1 sequence (P32121 whole entry): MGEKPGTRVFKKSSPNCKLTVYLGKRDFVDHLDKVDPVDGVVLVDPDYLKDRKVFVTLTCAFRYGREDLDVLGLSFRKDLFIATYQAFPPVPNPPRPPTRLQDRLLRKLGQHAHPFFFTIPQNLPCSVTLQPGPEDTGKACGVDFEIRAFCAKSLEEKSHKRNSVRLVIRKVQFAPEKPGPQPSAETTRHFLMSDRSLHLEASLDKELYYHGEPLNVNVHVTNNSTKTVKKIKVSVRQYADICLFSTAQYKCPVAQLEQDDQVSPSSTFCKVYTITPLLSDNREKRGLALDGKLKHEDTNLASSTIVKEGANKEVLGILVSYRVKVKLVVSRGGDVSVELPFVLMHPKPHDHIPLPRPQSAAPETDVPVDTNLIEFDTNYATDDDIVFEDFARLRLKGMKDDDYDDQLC

For the molecule `COc1cc(Cc2nccc3cc(OC)c(OC)cc23)c(C(C)=O)cc1OC` [Compound B29, 1-(2-((6,7-dimethoxyisoquinolin-1-yl)methyl)-4,5-dimethoxyphenyl)ethan-1-one], in experiment [1] (compound 50 μM, isoproterenol 10 nM, read-out: inhibition of β-arrestin 2 activity induced by isoproterenol), the inhibition at 50 µM was greater than 75%. In addition, in experiment [1] (compound at 1, 10, 50 μM, isoproterenol at various concentrations), the “effect on isoproterenol titration curves of β-arrestin 2 recruitment” value is “shifts the potency of agonist rightward and decreases maximal response in a dose dependent fashion”.
`CN(C)c1n/c(=N/Cc2ccco2)ss1` [Compound C30, (Z)-3-((furan-2-ylmethyl)imino)-N,N-dimethyl-3H-1,2,4-dithiazol-5-amine]: in the experiment with S1P1 on T cells (higher concentrations of compound), the “S1P1 expression level on T cells” value was “higher levels of S1P1 expression”. Besides, the “ability to inhibit BARR” value in the experiment on S1P1 on T cells (initially screened compound, FIG. 12) was “inhibit BARR”.

B1: G-CSF: granulocyte colony-stimulating factor, administered intraperitoneally every 3 days (protein, UniProt P09919 31-207, looked up)
Granulocyte …: TPLGPASSLPQSFLLKCLEQVRKIQGDGAALQEKLVSECATYKLCHPEELVLLGHSLGIPWAPLSSCPSQALQLAGCLSQLHSGLFLYQGLLQALEGISPELGPTLDTLQLDVADFATTIWQQMEELGMAPALQPTQGAMPAFASAFQRRAGGVLVASHLQSFLEVSYRVLRHLAQP
For the molecule B1, in experiment [2], the “T-cell lymphopenia (blood T-cell counts)” value is “reversed” and the “bone marrow T-cell counts” value was “decreased”. Also, in the experiment on intracranial CT2A glioma, the survival entry is “did not to consistently impact survival”.
